Measurements taken from patent publication US20220213099A1, “PRODRUG COMPOUNDS” (BRISTOL-MYERS SQUIBB COMPANY, priority 2019, published 2022).
Where a name gives a salt, the structure may show the parent alone. Read-outs that look alike come from different tables or passages of the source.

Legend:
[1] = Solubility evaluation in aqueous buffer; type: physicochemical; conditions: about 24 hours equilibration; for solubility: aqueous buffer, 25 °C, thermodynamic from solid
Method: The solid powder of an individual prodrug was equilibrated in aqueous buffers of pH 1, 4 and 6.5 at 25° C. for about 24 hours. After equilibration, the excess solid was separated by filtration using 0.45 μm membrane filter and the filtrate was collected in suitable glass vial. The filtrate was diluted appropriately using respective buffers/diluent and analyzed by a reversed phase LC method with UV detection.

[2] = Stability evaluation in aqueous buffer; type: physicochemical; conditions: about 50 μg/mL, about 15% v/v acetonitrile; for half-life: aqueous buffer, 37° C.
Method: The stability study of an individual prodrug was conducted with about 50 μg/mL solutions in aqueous buffers of pH 1 (0.1 M HCl), 4 (acetate buffer) and 6.5 (phosphate buffer) at 37° C. for 24 hours. About 15% v/v acetonitrile was used in these pH buffers as a co-solvent to obtain clear solutions of prodrugs. The sample analysis was carried out using a generic reversed phase liquid chromatographic (LC) method with UV detection. The area percent (AP) loss of the prodrug peak was quantified as a function of time. The appearance of parent peak was identified from the chromatographic retention time. The half-life (t1/2, h) of the prodrug was calculated by using a pseudo-first order equation from a AP loss vs time plot.

rat rIALP = assay: Recombinant intestinal alkaline phosphatase (rIALP) assay, rat; type: in vitro ADME; conditions: 100 mM Tris-HCl buffer pH 7.4, 37° C., 120 minutes incubation, read-out: t1/2 in rat rIALP
Method: (§1) Examples 8 and 9 were evaluated in this assay. To assess the potential for generation of parent drug from the phosphate prodrugs, 100 μL of rIALP was dissolved in 100 mM Tris-HCl buffer (pH 7.4) and it was added to 100 μL of freshly prepared prodrug solution (10 mM) prepared in the same buffer. Incubations were performed in triplicate using 96-well plates (Waters, Milford, Mass.) at 37° C. in a shaking water bath (Julabo, Allentown, Pa.). The prodrug and enzyme solution were pre-warmed at 37° C. before the reaction was initiated by addition of substrate. The incubation was performed for 120 minutes with […] taken at 0, 5, 10, 15, 30, 60, 90, and 120 minutes. The assays were terminated at designated time points by the addition of 200 μL of ice-cold acetonitrile containing internal standard followed by centrifugation at 4000 g for 4 minutes. The supernatant was transferred to a new 96-well plate for analysis by ultra-performance liquid chromatography combined with tandem mass spectrometry (UPLC-MS/MS). The t1/2 value for each prodrug/protein combination was determined from the natural logarithm of percent remaining versus time plots.

human rIALP = target: T1, human rIALP (Homo sapiens, UniProt P09923); assay: Recombinant intestinal alkaline phosphatase (rIALP) assay, human; type: in vitro ADME; conditions: 100 mM Tris-HCl buffer pH 7.4, 37° C., 120 minutes incubation, read-out: t1/2 in human rIALP
T1 sequence (P09923 20-503 limits assumed): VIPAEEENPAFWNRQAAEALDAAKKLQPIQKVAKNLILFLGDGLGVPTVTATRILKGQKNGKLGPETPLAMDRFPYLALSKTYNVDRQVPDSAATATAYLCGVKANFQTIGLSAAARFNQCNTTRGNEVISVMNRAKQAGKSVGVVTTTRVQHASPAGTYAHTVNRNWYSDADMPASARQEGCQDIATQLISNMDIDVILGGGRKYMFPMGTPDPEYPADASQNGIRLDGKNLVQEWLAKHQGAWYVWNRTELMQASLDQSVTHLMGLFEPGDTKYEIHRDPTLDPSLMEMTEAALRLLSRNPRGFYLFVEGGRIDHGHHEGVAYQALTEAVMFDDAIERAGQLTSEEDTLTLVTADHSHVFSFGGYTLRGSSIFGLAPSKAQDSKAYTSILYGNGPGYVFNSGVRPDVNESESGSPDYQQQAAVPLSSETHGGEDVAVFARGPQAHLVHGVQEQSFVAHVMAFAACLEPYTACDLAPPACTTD
Method: as §1

[3] = pH 1, simulated gastric fluid, aqueous buffer pH 1, 25° C., read-out: Solubility (mg/mL) at 25° C. pH 1
[4] = pH 4, aqueous buffer, aqueous buffer pH 4, 25° C., read-out: Solubility (mg/mL) at 25° C. pH 4
[5] = pH 6.5, aqueous buffer, aqueous buffer pH 6.5, 25° C., read-out: Solubility (mg/mL) at 25° C. pH 6.5
[6] = pH 1, pH 1 (0.1 M HCl), read-out: Stability (t1/2, h) at 37° C. pH 1 (converted)
[7] = pH 4, pH 4 (acetate buffer), read-out: Stability (t1/2, h) at 37° C. pH 4 (converted)
[8] = pH 6.5, pH 6.5 (phosphate buffer), read-out: Stability (t1/2, h) at 37° C. pH 6.5 (converted)

Row | Compound | solubility [1, 3] | solubility [1, 4] | solubility [1, 5] | half-life [2, 6] | half-life [2, 7] | half-life [2, 8] | half-life at 5 mM (rat rIALP) | half-life at 5 mM (human rIALP) | Solubility (mg/mL) at 25° C. pH 1 ([1]; aqueous buffer pH 1, 25° C., ditrifluoroacetate) | Solubility (mg/mL) at 25° C. pH 4 ([1]; aqueous buffer pH 4, 25° C., ditrifluoroacetate) | Solubility (mg/mL) at 25° C. pH 6.5 ([1]; aqueous buffer pH 6.5, 25° C., ditrifluoroacetate) | Stability (t1/2, h) at 37° C. pH 1 ([2]; pH 1 (0.1 M HCl)) | Stability (t1/2, h) at 37° C. pH 4 ([2]; pH 4 (acetate buffer), ditrifluoroacetate) | Stability (t1/2, h) at 37° C. pH 6.5 ([2]; pH 6.5 (phosphate buffer), ditrifluoroacetate)
1 | Cc1c(-c2[nH]c3ccc(C4CCN(CC(N)=O)CC4)cc3c2C(C)C)cn2nc[n+](COP(=O)(O)O)c2c1C (single isomer, unassigned) [Example 8, 6-(5-(1-(2-Amino-2-oxoethyl)piperidin-4-yl)-3-isopropyl-1H-indol-2-yl)-7,8-dimethyl-1-((phosphonooxy)methyl)-[1,2,4]triazolo[1,5-a]pyridin-1-ium trifluoroacetate] | > 0.86 mg/mL | 0.03 mg/mL | 0.86 mg/mL | > 500 h | > 500 h | > 500 h | < 0.00347 days | < 0.00694 days |  |  |  |  |  | 
2 | Cc1c(-c2[nH]c3ccc(C4CC[N+](COP(=O)(O)O)(CC(N)=O)CC4)cc3c2C(C)C)cn2ncnc2c1C (single isomer, unassigned) [Example 9, 1-(2-Amino-2-oxoethyl)-4-(2-(7,8-dimethyl-[1,2,4]triazolo[1,5-a]pyridin-6-yl)-3-isopropyl-1H-indol-5-yl)-1-((phosphonooxy)methyl)piperidin-1-ium trifluoroacetate] | > 1.14 mg/mL | 0.85 mg/mL | 1.34 mg/mL | > 500 h | > 500 h | > 500 h | < 0.00347 days | < 0.00347 days |  |  |  |  |  | 
3 | Cc1c(-c2c(C(C)C)c3cc(C4CCN(CC(N)=O)CC4)ccc3n2C(=O)OC(C)OC(=O)C2(N)CC2)cn2ncnc2c1C (single isomer, unassigned) [Example 7, 1-((1-Aminocyclopropane-1-carbonyl)oxy)ethyl 5-(1-(2-amino-2-oxoethyl)piperidin-4-yl)-2-(7,8-dimethyl-[1,2,4]triazolo[1,5-a]pyridin-6-yl)-3-isopropyl-1H-indole-1-carboxylate ditrifluoroacetate] |  |  |  |  |  |  |  |  | >1.49 mg/mL | >1.21 mg/mL | 0.34 mg/mL | >500 h | >500 h | 193 h
